Measurements from patent US20110158980A1, “METHODS TO TREAT AND SCREEN FOR AGENTS TO TREAT OBESITY” (TRUSTEES OF TUFTS COLLEGE, priority 2008, published 2011).

Tested on: 3T3-L1 adipocytes
Assay: Amino acid uptake or output of adipocytes (HPLC of spent medium)
Format: cell-based
Details: day 12 post-induction, positive value = uptake
Description: 3T3-L1 preadipocytes were plated onto 24-well plates and expanded in preadipocyte growth medium consisting of DMEM supplemented with calf serum (10% v/v), penicillin and streptomycin. Medium was replenished every other day. Two days post-confluence, the cells were induced to differentiate using an adipogenic cocktail (1 μg/ml insulin, 0.5 mM isobutylmethylxanthine, and 1 μM dexamethasone) added to a basal medium (DMEM with 10% fetal bovine serum and penicillin/streptomycin). After 48 hrs, the first medium was replaced with a second induction medium consisting of the basal adipocyte medium supplemented with only insulin. […] This basal medium was replenished every other day during the remainder of the culture experiments.
Metabolite measurements were performed both on cell lysates and spent medium samples as described previously (Si Y, Yoon J, Lee K. American journal of physiology 2007; 292:E1637-46). Cells were lysed in situ with an 0.1% SDS buffer and sonicated. Immediately after collection, the spent medium samples were cleaned of cell debris by a brief centrifugation step. Free glycerol, TG and free fatty acids (FFAs) were measured using enzymatic assay kits (SIGMA™). Glucose and lactate concentrations were measured using the methods of Trinder (Trinder P. J Clin Pathol 1969; 22:158-61) and Loomis (Loomis M E. J Lab Clin Med 1961; 57:966-9), respectively. Amino acids were quantified by HPLC using fluorescence-based detection following pre-column derivatization of primary or secondary amines with 6-aminoquinolyl-N-hydroxysuccinimidyl-carbamate (Cohen S A, De Antonis K M. J Chromatogr A 1994; 661:25-34). All metabolite data were normalized by the corresponding cell sample DNA content, which was determined with a fluorescence-based assay using the Hoechst dye.

In the case of `O=C(O)Cc1ccccc1` [phenylacetate], the “ALA uptake or output” value (5 mM PA) was 0.4 ± 0.1 mmol/g-DNA/2 days, the “ASN uptake or output” value (5 mM PA) was −4.6 ± 0.2 mmol/g-DNA/2 days and the “ASP uptake or output” value (5 mM PA) was 0.0 ± 0.0 mmol/g-DNA/2 days. The “GLN uptake or output” value (5 mM PA) was −7.9 ± 0.6 mmol/g-DNA/2 days, the “GLU uptake or output” value (5 mM PA) was 0.3 ± 0.0 mmol/g-DNA/2 days and the “GLY uptake or output” value (5 mM PA) was −7.3 ± 0.2 mmol/g-DNA/2 days. The “HIS uptake or output” value (5 mM PA) was −0.1 ± 0.1 mmol/g-DNA/2 days, the “ILE uptake or output” value (5 mM PA) was 8.1 ± 0.3 mmol/g-DNA/2 days and the “LEU uptake or output” value (5 mM PA) was 8.6 ± 0.3 mmol/g-DNA/2 days. The “LYS uptake or output” value (5 mM PA) was −1.8 ± 0.1 mmol/g-DNA/2 days, the “MET uptake or output” value (5 mM PA) was 0.1 ± 0.1 mmol/g-DNA/2 days and the “PHE uptake or output” value (5 mM PA) was −0.1 ± 0.1 mmol/g-DNA/2 days. For the same compound, the “PRO uptake or output” value (5 mM PA) was −1.4 ± 0.0 mmol/g-DNA/2 days, the “SER uptake or output” value (5 mM PA) was 4.5 ± 0.2 mmol/g-DNA/2 days and the “THR uptake or output” value (5 mM PA) was −1.2 ± 0.1^ mmol/g-DNA/2 days. For the same compound, the “TYR uptake or output” value (5 mM PA) was 0.1 ± 0.2 mmol/g-DNA/2 days, the “VAL uptake or output” value (5 mM PA) was 5.1 ± 0.4 mmol/g-DNA/2 days and the “ALA uptake or output” value (10 mM PA) was −0.5 ± 0.1 mmol/g-DNA/2 days. For the same compound, the “ASN uptake or output” value (10 mM PA) was −5.9 ± 0.4 mmol/g-DNA/2 days, the “ASP uptake or output” value (10 mM PA) was 0.0 ± 0.0 mmol/g-DNA/2 days and the “GLN uptake or output” value (10 mM PA) was 2.6 ± 2.9 mmol/g-DNA/2 days. The “GLU uptake or output” value (10 mM PA) was 0.3 ± 0.0 mmol/g-DNA/2 days, the “GLY uptake or output” value (10 mM PA) was −7.9 ± 0.9^ mmol/g-DNA/2 days and the “HIS uptake or output” value (10 mM PA) was −0.1 ± 0.2 mmol/g-DNA/2 days. The “ILE uptake or output” value (10 mM PA) was 7.5 ± 0.2 mmol/g-DNA/2 days, the “LEU uptake or output” value (10 mM PA) was 7.9 ± 0.2 mmol/g-DNA/2 days and the “LYS uptake or output” value (10 mM PA) was −2.0 ± 0.2 mmol/g-DNA/2 days. The “MET uptake or output” value (10 mM PA) was 0.1 ± 0.2 mmol/g-DNA/2 days, the “PHE uptake or output” value (10 mM PA) was −0.1 ± 0.4 mmol/g-DNA/2 days and the “PRO uptake or output” value (10 mM PA) was −2.1 ± 0.2 mmol/g-DNA/2 days. The “SER uptake or output” value (10 mM PA) was 4.6 ± 0.5 mmol/g-DNA/2 days, the “THR uptake or output” value (10 mM PA) was −1.4 ± 0.4^ mmol/g-DNA/2 days and the “TYR uptake or output” value (10 mM PA) was −0.0 ± 0.4 mmol/g-DNA/2 days. The “VAL uptake or output” value (10 mM PA) was 3.8 ± 0.4 mmol/g-DNA/2 days.
